# Results published in patent US20110118239A1, “PREPARATION AND ENANTIOMERIC SEPARATION OF 7-(3-PYRIDINYL)-1,7-DIAZASPIRO[4.4]NONANE AND NOVEL SALT FORMS OF THE RACEMATE AND ENANTIOMERS” (Targacept, Inc., priority 2008, published 2011).
# Several values for one entry are separate records, joined by “and”; a condition that tells them apart may be missing. Identical values can stand only once. Counter-ions that a name gives are not always drawn.
# Columns and labels:
# [1] = Dynamic vapor sorption (DVS) analysis; type: physicochemical
# Procedure: In a dynamic vapor sorption (DVS) apparatus, a sample of (R)-7-(3-pyridinyl)-1,7-diazaspiro[4.4]nonane mono-p-hydroxybenzoate (˜14.1 mg) was subjected to gradually increasing, followed by then gradually decreasing, humidity over a period of about 10 h (see details below). […] Given its relatively high melting point and crystalline nature, it is therefore a particularly good candidate for drug development.
# [2] = system: A/J mice; test: Depression model, tail suspension (TS); type: in vivo; conditions: 20 mg/kg, 10 min test
# Procedure: On the day of the test, A/J mice were brought to acclimate to the testing room for one hour. Eight animals were tested in each run. Following pretreatment with vehicle, desipramine (20 mg/kg) or Compound A, p-hydroxybenzoate (0.1, 0.3, and 1 mg/kg), a piece of transparent (Scotch) tape was attached to the tail of each mouse from about mid-tail with approximately 2 cm of tape past the end of the tail. The mice were then placed in the tail suspension chambers (white polyvinylchloride cubicles measuring 33×33×31.75 cm; Med Associates Inc., St Albans, Vt.). The mice were suspended from the hook of the TS force transducer via the tail tape. The force transducer transmitted the movements of the mouse to a recording device connected to a computer. Immobility time, struggle time, and intensity were automatically recorded for each min during the 10 min test period. Upon completion of the TS test, the mice were returned to their home cage and then to the animal colony. The TS chambers were cleaned between sessions. Data were analyzed by repeated measures and one-way analysis of variance (ANOVA) followed by Fisher PLSD post-hoc comparisons. An effect was considered significant if p<0.05.
Compound,melting point,other results
Cl.Cl.c1cncc(N2CCC3(CCCN3)C2)c1 (centres unmarked),242 to 244 °C,
"O=C(O)c1ccc(O)cc1.c1cncc(N2CC[C@]3(CCCN3)C2)c1 [(R)-7-(3-pyridinyl)-1,7-diazaspiro[4.4]nonane mono-p-hydroxybenzoate]",,stability to humidity ([1]; DVS): particularly stable to high humidity; weight gain during the course of the DVS study ([1]; increasing then decreasing humidity over about 10 h): less than 0.2 wt %
"c1cncc(N2CCC3(CCCN3)C2)c1 (racemic) (as salt: hydrochloride) [Compound C, 7-(3-pyridinyl)-1,7-diazaspiro[4.4]nonane]",227 to 232 °C and 227 to 233 °C,
"CNCCCN1c2ccccc2CCc2ccccc21 [desipramine, reference compound]",,struggle intensity compared to saline [2]: increased struggle intensity; total time immobile compared to saline [2]: decreased total time immobile
O=C(O)CCC(=O)O.c1cncc(N2CCC3(CCCN3)C2)c1 (centres unmarked),131.5 to 133 °C,
O.O=C(O)C(=O)O.O=C(O)C(=O)O.c1cncc(N2CCC3(CCCN3)C2)c1 (centres unmarked) (hydrate or solvate),200 to 201.5 °C,
